ChEMBL document CHEMBL5154747, “Discovery of new carbonic anhydrase IX inhibitors as anticancer agents by toning the hydrophobic and hydrophilic rims of the active site to encounter the dual-tail approach” (Eur J Med Chem, 2022)

Tests used:
Assay type in all cases: functional
Conditions in all cases: read-out: GI
CCRF-CEM = test: Anticancer activity against human CCRF-CEM cells assessed as cell growth inhibition at 10 uM incubated for 48 hrs by SRB assay relative to control
K562 = test: Anticancer activity against human K562 cells assessed as cell growth inhibition at 10 uM incubated for 48 hrs by SRB assay relative to control
MOLT-4 = test: Anticancer activity against human MOLT-4 cells assessed as cell growth inhibition at 10 uM incubated for 48 hrs by SRB assay relative to control
RPMI-8226 = test: Anticancer activity against human RPMI-8226 cells assessed as cell growth inhibition at 10 uM incubated for 48 hrs by SRB assay relative to control
SR = test: Anticancer activity against human SR cells assessed as cell growth inhibition at 10 uM incubated for 48 hrs by SRB assay relative to control
EKVX = test: Anticancer activity against human EKVX cells assessed as cell growth inhibition at 10 uM incubated for 48 hrs by SRB assay relative to control
HOP-62 = test: Anticancer activity against human HOP-62 cells assessed as cell growth inhibition at 10 uM incubated for 48 hrs by SRB assay relative to control
NCI-H226 = test: Anticancer activity against human NCI-H226 cells assessed as cell growth inhibition at 10 uM incubated for 48 hrs by SRB assay relative to control
NCI-H23 = test: Anticancer activity against human NCI-H23 cells assessed as cell growth inhibition at 10 uM incubated for 48 hrs by SRB assay relative to control
NCI-H322M = test: Anticancer activity against human NCI-H322M cells assessed as cell growth inhibition at 10 uM incubated for 48 hrs by SRB assay relative to control
NCI-H460 = test: Anticancer activity against human NCI-H460 cells assessed as cell growth inhibition at 10 uM incubated for 48 hrs by SRB assay relative to control
NCI-H522 = test: Anticancer activity against human NCI-H522 cells assessed as cell growth inhibition at 10 uM incubated for 48 hrs by SRB assay relative to control
COLO 205 = test: Anticancer activity against human COLO 205 cells assessed as cell growth inhibition at 10 uM incubated for 48 hrs by SRB assay relative to control
HCC 2998 = test: Anticancer activity against human HCC 2998 cells assessed as cell growth inhibition at 10 uM incubated for 48 hrs by SRB assay relative to control
HCT-15 = test: Anticancer activity against human HCT-15 cells assessed as cell growth inhibition at 10 uM incubated for 48 hrs by SRB assay relative to control
HT-29 = test: Anticancer activity against human HT-29 cells assessed as cell growth inhibition at 10 uM incubated for 48 hrs by SRB assay relative to control
KM12 = test: Anticancer activity against human KM12 cells assessed as cell growth inhibition at 10 uM incubated for 48 hrs by SRB assay relative to control
SW-620 = test: Anticancer activity against human SW-620 cells assessed as cell growth inhibition at 10 uM incubated for 48 hrs by SRB assay relative to control
SF-268 = test: Anticancer activity against human SF-268 cells assessed as cell growth inhibition at 10 uM incubated for 48 hrs by SRB assay relative to control
SF-539 = test: Anticancer activity against human SF-539 cells assessed as cell growth inhibition at 10 uM incubated for 48 hrs by SRB assay relative to control
SNB-75 = test: Anticancer activity against human SNB-75 cells assessed as cell growth inhibition at 10 uM incubated for 48 hrs by SRB assay relative to control
U-251 = test: Anticancer activity against human U-251 cells assessed as cell growth inhibition at 10 uM incubated for 48 hrs by SRB assay relative to control
LOX IMVI = test: Anticancer activity against human LOX IMVI cells assessed as cell growth inhibition at 10 uM incubated for 48 hrs by SRB assay relative to control
MDA-MB-435 = test: Anticancer activity against human MDA-MB-435 cells assessed as cell growth inhibition at 10 uM incubated for 48 hrs by SRB assay relative to control
SK-MEL-2 = test: Anticancer activity against human SK-MEL-2 cells assessed as cell growth inhibition at 10 uM incubated for 48 hrs by SRB assay relative to control
SK-MEL-28 = test: Anticancer activity against human SK-MEL-28 cells assessed as cell growth inhibition at 10 uM incubated for 48 hrs by SRB assay relative to control
UACC-62 = test: Anticancer activity against human UACC-62 cells assessed as cell growth inhibition at 10 uM incubated for 48 hrs by SRB assay relative to control
OVCAR-3 = test: Anticancer activity against human OVCAR-3 cells assessed as cell growth inhibition at 10 uM incubated for 48 hrs by SRB assay relative to control
OVCAR-5 = test: Anticancer activity against human OVCAR-5 cells assessed as cell growth inhibition at 10 uM incubated for 48 hrs by SRB assay relative to control
OVCAR-8 = test: Anticancer activity against human OVCAR-8 cells assessed as cell growth inhibition at 10 uM incubated for 48 hrs by SRB assay relative to control
NCI/ADR-RES = test: Anticancer activity against human NCI/ADR-RES cells assessed as cell growth inhibition at 10 uM incubated for 48 hrs by SRB assay relative to control
SK-OV-3 = test: Anticancer activity against human SK-OV-3 cells assessed as cell growth inhibition at 10 uM incubated for 48 hrs by SRB assay relative to control
A498 = test: Anticancer activity against human A498 cells assessed as cell growth inhibition at 10 uM incubated for 48 hrs by SRB assay relative to control
ACHN = test: Anticancer activity against human ACHN cells assessed as cell growth inhibition at 10 uM incubated for 48 hrs by SRB assay relative to control
RXF 393 = test: Anticancer activity against human RXF 393 cells assessed as cell growth inhibition at 10 uM incubated for 48 hrs by SRB assay relative to control
PC-3 = test: Anticancer activity against human PC-3 cells assessed as cell growth inhibition at 10 uM incubated for 48 hrs by SRB assay relative to control
DU-145 = test: Anticancer activity against human DU-145 cells assessed as cell growth inhibition at 10 uM incubated for 48 hrs by SRB assay relative to control
BT-549 = test: Anticancer activity against human BT-549 cells assessed as cell growth inhibition at 10 uM incubated for 48 hrs by SRB assay relative to control
T47D = test: Anticancer activity against human T47D cells assessed as cell growth inhibition at 10 uM incubated for 48 hrs by SRB assay relative to control
MDA-MB-468 = test: Anticancer activity against human MDA-MB-468 cells assessed as cell growth inhibition at 10 uM incubated for 48 hrs by SRB assay relative to control

| SMILES | inhibition of growth at 10 µM (CCRF-CEM) [%] | inhibition of growth at 10 µM (K562) [%] | inhibition of growth at 10 µM (MOLT-4) [%] | inhibition of growth at 10 µM (RPMI-8226) [%] | inhibition of growth at 10 µM (SR) [%] | inhibition of growth at 10 µM (EKVX) [%] | inhibition of growth at 10 µM (HOP-62) [%] | inhibition of growth at 10 µM (NCI-H226) [%] | inhibition of growth at 10 µM (NCI-H23) [%] | inhibition of growth at 10 µM (NCI-H322M) [%] | inhibition of growth at 10 µM (NCI-H460) [%] | inhibition of growth at 10 µM (NCI-H522) [%] | inhibition of growth at 10 µM (COLO 205) [%] | inhibition of growth at 10 µM (HCC 2998) [%] | inhibition of growth at 10 µM (HCT-15) [%] | inhibition of growth at 10 µM (HT-29) [%] | inhibition of growth at 10 µM (KM12) [%] | inhibition of growth at 10 µM (SW-620) [%] | inhibition of growth at 10 µM (SF-268) [%] | inhibition of growth at 10 µM (SF-539) [%] | other results |
| --- | --- | --- | --- | --- | --- | --- | --- | --- | --- | --- | --- | --- | --- | --- | --- | --- | --- | --- | --- | --- | --- |
| NS(=O)(=O)c1ccc(Nc2nc(N/N=C/CCc3ccccc3)nc(Nc3ccccc3)n2)cc1 | < 10 | < 10 | < 10 | < 10 | < 10 | < 10 | < 10 | < 10 | < 10 | < 10 | < 10 | 12 | < 10 | < 10 | < 10 | < 10 | < 10 | < 10 | < 10 | < 10 | inhibition of growth at 10 µM (SNB-75): < 10%; inhibition of growth at 10 µM (U-251): < 10%; inhibition of growth at 10 µM (LOX IMVI): < 10%; inhibition of growth at 10 µM (MDA-MB-435): < 10%; inhibition of growth at 10 µM (SK-MEL-2): < 10%; inhibition of growth at 10 µM (SK-MEL-28): < 10%; inhibition of growth at 10 µM (UACC-62): < 10%; inhibition of growth at 10 µM (OVCAR-3): < 10%; inhibition of growth at 10 µM (OVCAR-5): < 10%; inhibition of growth at 10 µM (OVCAR-8): < 10%; inhibition of growth at 10 µM (NCI/ADR-RES): < 10%; inhibition of growth at 10 µM (SK-OV-3): < 10%; inhibition of growth at 10 µM (A498): < 10%; inhibition of growth at 10 µM (ACHN): < 10%; inhibition of growth at 10 µM (RXF 393): < 10%; inhibition of growth at 10 µM (PC-3): < 10%; inhibition of growth at 10 µM (DU-145): < 10%; inhibition of growth at 10 µM (BT-549): < 10%; inhibition of growth at 10 µM (T47D): < 10%; inhibition of growth at 10 µM (MDA-MB-468): 11% |
| Cc1ccc(/C=N/Nc2nc(Nc3ccccc3)nc(Nc3ccc(S(N)(=O)=O)cc3)n2)cc1 | 57 | 43 | 59 | 56 | 64 | 21 | 13 | 20 | 23 | > 10 | 45 | 10 | 16 | 25 | 46 | 45 | 34 | < 10 | 12 | 55 | inhibition of growth at 10 µM (SNB-75): 32%; inhibition of growth at 10 µM (U-251): 37%; inhibition of growth at 10 µM (LOX IMVI): 45%; inhibition of growth at 10 µM (MDA-MB-435): 30%; inhibition of growth at 10 µM (SK-MEL-2): 22%; inhibition of growth at 10 µM (SK-MEL-28): 24%; inhibition of growth at 10 µM (UACC-62): < 10%; inhibition of growth at 10 µM (OVCAR-3): 39%; inhibition of growth at 10 µM (OVCAR-5): 15%; inhibition of growth at 10 µM (OVCAR-8): 30%; inhibition of growth at 10 µM (NCI/ADR-RES): < 10%; inhibition of growth at 10 µM (SK-OV-3): < 10%; inhibition of growth at 10 µM (A498): 45%; inhibition of growth at 10 µM (ACHN): 38%; inhibition of growth at 10 µM (RXF 393): 102%; inhibition of growth at 10 µM (PC-3): 33%; inhibition of growth at 10 µM (DU-145): 34%; inhibition of growth at 10 µM (BT-549): 23%; inhibition of growth at 10 µM (T47D): 45%; inhibition of growth at 10 µM (MDA-MB-468): 35% |
| NS(=O)(=O)c1ccc(Nc2nc(N/N=C/c3cccc4ccccc34)nc(Nc3ccccc3)n2)cc1 | 81 | 41 | 84 | 51 | 65 | 20 | 11 | 19 | 10 | < 10 | 13 | 24 | 18 | 15 | 29 | 36 | 27 | < 10 | 12 | 22 | inhibition of growth at 10 µM (SNB-75): < 10%; inhibition of growth at 10 µM (U-251): 33%; inhibition of growth at 10 µM (LOX IMVI): 44%; inhibition of growth at 10 µM (MDA-MB-435): 41%; inhibition of growth at 10 µM (SK-MEL-2): 17%; inhibition of growth at 10 µM (SK-MEL-28): 20%; inhibition of growth at 10 µM (UACC-62): 18%; inhibition of growth at 10 µM (OVCAR-3): 23%; inhibition of growth at 10 µM (OVCAR-5): < 10%; inhibition of growth at 10 µM (OVCAR-8): 40%; inhibition of growth at 10 µM (NCI/ADR-RES): < 10%; inhibition of growth at 10 µM (SK-OV-3): < 10%; inhibition of growth at 10 µM (A498): < 10%; inhibition of growth at 10 µM (ACHN): 18%; inhibition of growth at 10 µM (RXF 393): 64%; inhibition of growth at 10 µM (PC-3): 44%; inhibition of growth at 10 µM (DU-145): 31%; inhibition of growth at 10 µM (BT-549): < 10%; inhibition of growth at 10 µM (T47D): 55%; inhibition of growth at 10 µM (MDA-MB-468): < 10% |
| NS(=O)(=O)c1ccc(Nc2nc(N/N=C/c3c[nH]c4ccccc34)nc(Nc3ccccc3)n2)cc1 | 87 | 77 | 80 | 105 | 87 | 32 | 36 | 58 | 52 | 45 | 58 | 68 | 59 | 47 | 24 | 68 | 72 | 50 | 40 | 52 | inhibition of growth at 10 µM (SNB-75): 29%; inhibition of growth at 10 µM (U-251): 71%; inhibition of growth at 10 µM (LOX IMVI): 110%; inhibition of growth at 10 µM (MDA-MB-435): 68%; inhibition of growth at 10 µM (SK-MEL-2): 32%; inhibition of growth at 10 µM (SK-MEL-28): 54%; inhibition of growth at 10 µM (UACC-62): 61%; inhibition of growth at 10 µM (OVCAR-3): 73%; inhibition of growth at 10 µM (OVCAR-5): 12%; inhibition of growth at 10 µM (OVCAR-8): 62%; inhibition of growth at 10 µM (NCI/ADR-RES): < 10%; inhibition of growth at 10 µM (SK-OV-3): < 10%; inhibition of growth at 10 µM (A498): 48%; inhibition of growth at 10 µM (ACHN): 18%; inhibition of growth at 10 µM (RXF 393): 125%; inhibition of growth at 10 µM (PC-3): 73%; inhibition of growth at 10 µM (DU-145): 56%; inhibition of growth at 10 µM (BT-549): 51%; inhibition of growth at 10 µM (T47D): 64%; inhibition of growth at 10 µM (MDA-MB-468): 47% |
